Measurements as given in patent US20140255392A1 (BAYER INTELLECTUAL PROPERTY GMBH, priority 2011, published 2014).

Target: T1, human kinase Mps-1 (Homo sapiens, UniProt P33981)
T1 construct: N-terminally GST-tagged human full length recombinant Mps-1 kinase; GST (N); purchased Invitrogen, Karslruhe, Germany PV4071
T1 sequence (P33981 1-857): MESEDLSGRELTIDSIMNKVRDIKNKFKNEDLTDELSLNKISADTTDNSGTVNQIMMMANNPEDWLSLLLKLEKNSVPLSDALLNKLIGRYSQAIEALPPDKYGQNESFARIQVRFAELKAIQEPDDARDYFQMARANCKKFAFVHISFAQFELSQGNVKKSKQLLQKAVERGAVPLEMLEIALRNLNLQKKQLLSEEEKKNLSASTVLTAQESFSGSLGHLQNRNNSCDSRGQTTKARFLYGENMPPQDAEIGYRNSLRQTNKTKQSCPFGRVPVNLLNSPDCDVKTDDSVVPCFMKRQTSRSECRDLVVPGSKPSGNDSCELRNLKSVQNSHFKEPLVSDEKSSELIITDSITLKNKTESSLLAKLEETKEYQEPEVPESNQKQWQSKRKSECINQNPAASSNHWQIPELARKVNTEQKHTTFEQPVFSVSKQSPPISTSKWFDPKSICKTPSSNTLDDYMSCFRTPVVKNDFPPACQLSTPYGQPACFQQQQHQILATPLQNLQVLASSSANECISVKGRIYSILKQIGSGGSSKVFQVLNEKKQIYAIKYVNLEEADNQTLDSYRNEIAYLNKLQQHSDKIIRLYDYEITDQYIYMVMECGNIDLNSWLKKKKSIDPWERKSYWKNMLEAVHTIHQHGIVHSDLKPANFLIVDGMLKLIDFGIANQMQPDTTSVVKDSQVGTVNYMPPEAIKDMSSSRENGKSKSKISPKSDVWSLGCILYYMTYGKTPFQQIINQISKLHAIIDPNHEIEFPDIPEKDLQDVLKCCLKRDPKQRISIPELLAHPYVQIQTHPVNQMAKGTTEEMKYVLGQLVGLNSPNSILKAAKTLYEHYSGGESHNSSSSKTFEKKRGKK
Assay: Mps-1 kinase assay (TR-FRET)
Format: biochemical
Details: N-terminally GST-tagged human full length recombinant Mps-1; 10 μM ATP; 1 μM peptide substrate; 60 min at 22° C.
Protocol: The human kinase Mps-1 phosphorylates a biotinylated substrate peptide. Detection of the phosphorylated product is achieved by time-resolved fluorescence resonance energy transfer (TR-FRET) from Europium-labelled anti-phospho-Serine/Threonine antibody as donor to streptavidin labelled with cross-linked allophycocyanin (SA-XLent) as acceptor. Compounds are tested for their inhibition of the kinase activity.
N-terminally GST-tagged human full length recombinant Mps-1 kinase (purchased from Invitrogen, Karslruhe, Germany, cat. no PV4071) was used. As substrate for the kinase reaction a biotinylated peptide of the amino-acid sequence […] (C-terminus in amide form, purchased from Biosynthan GmbH, Berlin) was used.
The concentration of Mps-1 in the assay was adjusted to the activity of the enzyme lot and was chosen appropriate to have the assay in the linear range, typical enzyme concentrations were in the range of about 1 nM (final conc. in the 5 μl assay volume).
The resulting mixture was incubated 1 h at 22° C. to allow the binding of the phosphorylated peptide to the anti-phospho(Ser/Thr)-Europium-antibody. Subsequently the amount of phosphorylated substrate was evaluated by measurement of the resonance energy transfer from the Europium-labelled anti-phospho(Ser/Thr) antibody to the Streptavidin-XLent.

Row | IC50 | SMILES
1 | 33.2 nM | Cc1cc(-c2cnc3c(NCCC(F)(F)F)cc(C(C)O)cn23)ccc1C(=O)NC1CC1 (racemic) [Example 143, N-cyclopropyl-4-{6-[(1RS)-1-hydroxyethyl]-8-[(3,3,3-trifluoropropyl)amino]imidazo[1,2-a]pyridin-3-yl}-2-methylbenzamide]
2 | 233 nM | CNC(=O)c1ccc(-c2cnc3c(NCCC(F)(F)F)cc(C(C)O)cn23)cc1C (racemic) [Example 144, 4-{6-[(1RS)-1-Hydroxyethyl]-8-[(3,3,3-trifluoropropyl)amino]imidazo[1,2-a]pyridin-3-yl}-N,2-dimethylbenzamide]
3 | 250 nM | CCNC(=O)c1ccc(-c2cnc3c(NCCC(F)(F)F)cc(C(C)O)cn23)cc1C (racemic) [Example 145, N-ethyl-4-{6-[(1RS)-1-hydroxyethyl]-8-[(3,3,3-trifluoropropyl)amino]imidazo[1,2-a]pyridin-3-yl}-2-methylbenzamide]
4 | 1.1 nM | Cc1cc(-c2cnc3c(NCCC(F)(F)F)cc(Oc4cccc(F)c4)cn23)ccc1C(=O)N[C@H]1C[C@@H]1F (relative stereo) [Example 12 (rac.-A), N-[rel-(1S,2S)-2-fluorocyclopropyl]-4-{6-(3-fluorophenoxy)-8-[(3,3,3-trifluoropropyl)amino]imidazo[1,2-a]pyridin-3-yl}-2-methylbenzamide]
5 | 29.4 nM | C#Cc1cc(NCCC(F)(F)F)c2ncc(-c3ccc(C(=O)N[C@@H]4C[C@H]4F)c(C)c3)n2c1 (relative stereo) [Example 16, 4-{6-ethynyl-8-[(3,3,3-trifluoropropyl)amino]imidazo[1,2-a]pyridin-3-yl}-N-[rel-(1R,2R)-2-fluorocyclopropyl]-2-methylbenzamide]
6 | 1.3 nM | Cc1ccc(F)cc1Oc1cc(NCCC(F)(F)F)c2ncc(-c3ccc(C(=O)N[C@H]4C[C@@H]4F)c(C)c3)n2c1 (relative stereo) [Example 29, N-[rel-(1S,2S)-2-fluorocyclopropyl]-4-{6-(5-fluoro-2-methylphenoxy)-8-[(3,3,3-trifluoropropyl)amino]imidazo[1,2-a]pyridin-3-yl}-2-methylbenzamide]
7 | 3.1 nM | Cc1cc(-c2cnc3c(NCCC(F)(F)F)cc(Oc4cccc(Cl)c4)cn23)ccc1C(=O)N[C@@H]1C[C@H]1F (relative stereo) [Example 39 (rac.-A), 4-{6-(3-chlorophenoxy)-8-[(3,3,3-trifluoropropyl)amino]imidazo[1,2-a]pyridin-3-yl}-N-[rel-(1R,2R)-2-fluorocyclopropyl]-2-methylbenzamide]
8 | 2.1 nM | Cc1cc(-c2cnc3c(NCCC(F)(F)F)cc(Oc4cccc(F)c4)cn23)ccc1C(=O)N[C@@H]1C[C@H]1C (relative stereo) [Example 48, Rel-4-{6-(3-fluorophenoxy)-8-[(3,3,3-trifluoropropyl)amino]imidazo[1,2-a]pyridin-3-yl}-2-methyl-N-[(1R,2R)-2-methylcyclopropyl]benzamide]
9 | 4.9 nM | Cc1ccc(F)cc1Oc1cc(NCCC(F)(F)F)c2ncc(-c3ccc(C(=O)N[C@@H]4C[C@H]4C)c(C)c3)n2c1 (relative stereo) [Example 61, Rel-4-{6-(5-fluoro-2-methylphenoxy)-8-[(3,3,3-trifluoropropyl)amino]imidazo[1,2-a]pyridin-3-yl}-2-methyl-N-[(1R,2R)-2-methylcyclopropyl]benzamide]
10 | 47.4 nM | C=Cc1cc(NCCC(F)(F)F)c2ncc(-c3ccc(C(=O)N[C@H]4C[C@@H]4F)c(C)c3)n2c1 (relative stereo) [Example 97, N-[rel-(1S,2S)-2-fluorocyclopropyl]-2-methyl-4-{8-[(3,3,3-trifluoropropyl)amino]-6-vinylimidazo[1,2-a]pyridin-3-yl}benzamide]
11 | 29.4 nM | C=Cc1cc(NCCC(F)(F)F)c2ncc(-c3ccc(C(=O)N[C@H]4C[C@@H]4C)c(C)c3)n2c1 (relative stereo) [Example 98, 2-Methyl-N-[rel-(1S,2S)-2-methylcyclopropyl]-4-{8-[(3,3,3-trifluoropropyl)amino]-6-vinylimidazo[1,2-a]pyridin-3-yl}benzamide]
12 | 65.3 nM | CCc1cc(NCCC(F)(F)F)c2ncc(-c3ccc(C(=O)N[C@H]4C[C@@H]4F)c(C)c3)n2c1 (relative stereo) [Example 104, 4-{6-Ethyl-8-[(3,3,3-trifluoropropyl)amino]imidazo[1,2-a]pyridin-3-yl}-N-[rel-(1S,2S)-2-fluorocyclopropyl]-2-methylbenzamide]
13 | 49.8 nM | CCc1cc(NCCC(F)(F)F)c2ncc(-c3ccc(C(=O)N[C@H]4C[C@@H]4C)c(C)c3)n2c1 (relative stereo) [Example 105, 4-{6-Ethyl-8-[(3,3,3-trifluoropropyl)amino]imidazo[1,2-a]pyridin-3-yl}-2-methyl-N-[rel-(1S,2S)-2-methylcyclopropyl]benzamide]
14 | 19.9 nM | C/C=C/c1cc(NCCC(F)(F)F)c2ncc(-c3ccc(C(=O)N[C@H]4C[C@@H]4F)c(C)c3)n2c1 (relative stereo) [Example 116, N-[rel-(1S,2S)-2-fluorocyclopropyl]-2-methyl-4-{6-[(1E)-prop-1-en-1-yl]-8-[(3,3,3-trifluoropropyl)amino]imidazo[1,2-a]pyridin-3-yl}benzamide]
15 | 9.4 nM | C/C=C/c1cc(NCCC(F)(F)F)c2ncc(-c3ccc(C(=O)N[C@H]4C[C@@H]4C)c(C)c3)n2c1 (relative stereo) [Example 117, 2-Methyl-N-[rel-(1S,2S)-2-methylcyclopropyl]-4-{6-[(1E)-prop-1-en-1-yl]-8-[(3,3,3-trifluoropropyl)amino]imidazo[1,2-a]pyridin-3-yl}benzamide]
16 | 19.9 nM | Cc1cc(-c2cnc3c(NCCC(F)(F)F)cc(/C=C\CO)cn23)ccc1C(=O)N[C@@H]1C[C@H]1F (relative stereo) [Example 118, N-[rel-(1R,2R)-2-fluorocyclopropyl]-4-{6-[(1Z)-3-hydroxyprop-1-en-1-yl]-8-[(3,3,3-trifluoropropyl)amino]imidazo[1,2-a]pyridin-3-yl}-2-methylbenzamide]
17 | 0.7 nM | COc1ccc(Oc2cc(NCCC(F)(F)F)c3ncc(-c4ccc(C(=O)N[C@H]5C[C@@H]5F)c(C)c4)n3c2)cc1F (relative stereo) [Example 124, N-[rel-(1S,2S)-2-fluorocyclopropyl]-4-{6-(3-fluoro-4-methoxyphenoxy)-8-[(3,3,3-trifluoropropyl)amino]imidazo[1,2-a]pyridin-3-yl}-2-methylbenzamide]
18 | 2 nM | COc1ccc(Oc2cc(NCCC(F)(F)F)c3ncc(-c4ccc(C(=O)N[C@H]5C[C@@H]5C)c(C)c4)n3c2)cc1F (relative stereo) [Example 125, 4-{6-(3-fluoro-4-methoxyphenoxy)-8-[(3,3,3-trifluoropropyl)amino]imidazo[1,2-a]pyridin-3-yl}-2-methyl-N-[rel-(1S,2S)-2-methylcyclopropyl]benzamide]
19 | 8.4 nM | Cc1cc(-c2cnc3c(NCCC(F)(F)F)cc(-c4ccccc4O)cn23)ccc1C(=O)N[C@H]1C[C@@H]1F (relative stereo) [Example 135, N-[rel-(1S,2S)-2-fluorocyclopropyl]-4-{6-(2-hydroxyphenyl)-8-[(3,3,3-trifluoropropyl)amino]imidazo[1,2-a]pyridin-3-yl}-2-methylbenzamide]
20 | 0.8 nM | Cc1cc(-c2cnc3c(NCCC(F)(F)F)cc(-c4ccc(C(=O)N[C@H]5C[C@@H]5F)c(C)c4)cn23)ccc1C(=O)NC1CC1 (relative stereo) [Example 152, 4-{3-[4-(cyclopropylcarbamoyl)-3-methylphenyl]-8-[(3,3,3-trifluoropropyl)amino]imidazo[1,2-a]pyridin-6-yl}-N-[rel-(1S,2S)-2-fluorocyclopropyl]-2-methylbenzamide]
21 | 12.7 nM | CNC(=O)c1ccc(-c2cnc3c(NCCC(F)(F)F)cc(-c4ccc(C(=O)N[C@H]5C[C@@H]5F)c(C)c4)cn23)cc1C (relative stereo) [Example 154, 4-{6-(4-{[rel-(1S,2S)-2-fluorocyclopropyl]carbamoyl}-3-methylphenyl)-8-[(3,3,3-trifluoropropyl)amino]imidazo[1,2-a]pyridin-3-yl}-N,2-dimethylbenzamide]
